Test results as given in patent US8653102B2, “Substituted 2-oxo- and 2-thioxo-dihydroquinoline-3-carboxamides as KCNQ2/3 modulators” (Gruenenthal GmbH, priority 2010, dated 2014).
Read-outs that look alike come from different tables or passages of the source.

Biological target: T1, KCNQ2/3 channels (Homo sapiens, UniProt O43525+O43526)
T1 construct: expressed in transfected cells; host or cells: CHO-K1 cells kept under selection antibiotics
Test: Fluorescence assay using a voltage sensitive dye (fluorimetry)
Format: cell-based
Experimental: Pharmacological Experiments Method I. Fluorescence Assay Using a Voltage Sensitive Dye (Fluorimetry)
[…] CHO-K1 cells expressing KCNQ2/3 channels are cultivated adherently at 37° C., 5% CO2 and 95% humidity in cell culture bottles (e.g. 80 cm^2 TC flasks, Nunc) with DMEM-high glucose (Sigma Aldrich, D7777) including 10% FCS (PAN Biotech, e.g. 3302-P270521) or alternatively MEM Alpha Medium (1×, liquid, Invitrogen, #22571), 10% fetal calf serum (FCS) (Invitrogen, #10270-106, heat-inactivated) and the necessary selection antibiotics.
Before being sown out for the measurements, the cells are washed with 1×DPBS buffer Ca^2+/Mg^2+-free (e.g. Invitrogen, #14190-094) and detached from the bottom of the culture vessel by using Accutase (PAA Laboratories, #L11-007) (incubation with Accutase for 15 min at 37° C.). The cell number is determined using a CASY™ cell counter (TCC, Schärfe System). Depending on the optimal density for each individual cell line, 20,000-30,000 cells/well/100 μl are seeded onto 96-well Corning™ CellBIND™ assay plates (Flat Clear Bottom Black Polystyrene Microplates, #3340). Freshly seeded cells are then left to settle for one hour at room temperature, followed by incubation for 24 hours at 37° C., 5% CO2 and 95% humidity.
The voltage-sensitive fluorescent dye from the Membrane Potential Assay Kit (Red™ Bulk format part R8123 for FLIPR, MDS Analytical Technologies™) is prepared by dissolving the contents of one vessel Membrane Potential Assay Kit Red Component A in 200 ml of extracellular buffer (ES buffer, 120 mM NaCl, 1 mM KCl, 10 mM HEPES, 2 mM CaCl2, 2 mM MgCl2, 10 mM glucose; pH 7.4). After removal of the nutrient medium, the cells are washed once with 200 μl of ES buffer, then loaded for 45 min at room temperature in 100 μl of dye solution in the dark.
Fluorescence measurements are carried out in a BMG Labtech FLUOstar™, BMG Labtech NOVOstar™ or BMG Labtech POLARstar™ instrument (525 nm excitation, 560 nm emission, Bottom Read mode). After incubation with the dye, 50 μl of the test substances in the desired concentrations, or 50 μl of ES buffer for control purposes, are applied to the wells of the assay plate and incubated for 30 min at room temperature while being shielded from light. The fluorescence intensity of the dye is then measured for 5 min and the fluorescence value F1 of each well is thus determined at a given, constant time. 15 μl of a KCl solution are then added to each well (final concentration of potassium ions 92 mM). The change in fluorescence intensity is subsequently monitored until all the relevant values have been obtained (mainly 5-30 min). At a given time post KCl application, a fluorescence value F2 is determined, in this case at the time of the fluorescence peak.
For calculation, the fluorescence intensity F2 is corrected for the fluorescence intensity F1, and the activity (ΔF/F) of the target compound on the potassium channel is determined as follows:
In order to determine whether a substance has agonistic activity,
A substance has an agonistic activity on the potassium channel if
[formula] increases dose dependently.
Calculations of EC50 and IC50 values are carried out with the aid of ‘Prism v4.0’ software (GraphPad Software™).

[1] = CHO-K1 cells expressing KCNQ2/3 channels
[2] = CHO-K1 cells expressing KCNQ2/3 channels, relative to retigabine (RTG) = 100%, read-out: Fluorimetry % efficacy (RTG = 100%)

Compound	EC50 [1] [nM]	Emax [2] [%]	Fluorimetry % efficacy (RTG = 100%) (CHO-K1 cells expressing KCNQ2/3 channels, relative to retigabine (RTG) = 100%) [%]	Emax (CHO-K1, read-out: Fluorimetry % efficacy (RTG = 100%)) [%]
2-[3-[(3-fluorophenyl)-methyl-carbamoyl]-4-methyl-2-oxo-7-(trifluoromethyl)-1H-quinolin-1-yl]-acetic acid methyl ester [Example 26]	1010		108	
CCCCn1c(=O)c(C(=O)NCc2cccc(F)c2)c(C)c2ccc(C(F)(F)F)cc21 [Example 2, 1-butyl-N-[(3-fluorophenyl)-methyl]-4-methyl-2-oxo-7-(trifluoromethyl)-1H-quinoline-3-carboxylic acid amide]	235	90		
Cc1c(C(=O)NCc2cccc(F)c2)c(=O)n(CCC(C)C)c2cc(C(F)(F)F)ccc12 [Example 12, N-[(3-fluorophenyl)-methyl]-4-methyl-1-(3-methyl-butyl)-2-oxo-7-(trifluoromethyl)-1H-quinoline-3-carboxylic acid amide]		33		
Cc1c(C(=O)NCc2cccc(F)c2)c(=O)n(CCCC(C)C)c2cc(C(F)(F)F)ccc12 [Example 13, N-[(3-fluorophenyl)-methyl]-4-methyl-1-(4-methyl-pentyl)-2-oxo-7-(trifluoromethyl)-1H-quinoline-3-carboxylic acid amide]		3		
COCCCn1c(=O)c(C(=O)NCc2cccc(F)c2)c(C)c2ccc(C(F)(F)F)cc21 [Example 14, N-[(3-fluorophenyl)-methyl]-1-(3-methoxy-propyl)-4-methyl-2-oxo-7-(trifluoromethyl)-1H-quinoline-3-carboxylic acid amide]	992	61		
Cc1c(C(=O)NCc2ccc(F)cc2)c(=O)n(C)c2cc(C#N)ccc12 [Example 21, 7-cyano-N-[(4-fluorophenyl)-methyl]-1,4-dimethyl-2-oxo-1H-quinoline-3-carboxylic acid amide]	837	136		
COCCn1c(=O)c(C(=O)NCc2cccc(F)c2)c(C)c2ccc(C#N)cc21 [Example 22, 7-cyano-N-[(3-fluorophenyl)-methyl]-1-(2-methoxy-ethyl)-4-methyl-2-oxo-1H-quinoline-3-carboxylic acid amide]	3140	102		
COCCn1c(=O)c(C(=O)NCCCC(C)(C)C)c(C)c2ccc(C(F)(F)F)cc21 [Example 24, N-(4,4-dimethyl-pentyl)-1-(2-methoxy-ethyl)-4-methyl-2-oxo-7-(trifluoromethyl)-1H-quinoline-3-carboxylic acid amide]	167	231		
Cc1c(C(=O)NCCCC(C)(C)C)c(=O)n(C)c2cc(C(F)(F)F)ccc12 [Example 25, N-(4,4-dimethyl-pentyl)-1,4-dimethyl-2-oxo-7-(trifluoromethyl)-1H-quinoline-3-carboxylic acid amide]	68	258		
COC(=O)CCn1c(=O)c(C(=O)N(C)c2cccc(F)c2)c(C)c2ccc(C(F)(F)F)cc21 [Example 27, 3-[3-[(3-fluorophenyl)-methyl-carbamoyl]-4-methyl-2-oxo-7-(trifluoromethyl)-1H-quinolin-1-yl]-propionic acid methyl ester]		22		
COCC(COC)n1c(=O)c(C(=O)NCc2cccc(F)c2)c(C)c2ccc(C(F)(F)F)cc21 [Example 31, N-[(3-Fluorophenyl)-methyl]-1-[2-methoxy-1-(methoxymethyl)-ethyl]-4-methyl-2-oxo-7-(trifluoromethyl)-1H-quinoline-3-carboxylic acid amide]	80			46
Cc1c(C(=O)NCc2cccc(F)c2)c(=O)n(C)c2cc(OC(F)(F)F)ccc12 [Example 33, N-[(3-fluorophenyl)-methyl]-1,4-dimethyl-2-oxo-7-(trifluoromethyloxy)-1H-quinoline-3-carboxylic acid amide]	386	138		

Now from value to compound, other results behind:

EC50 [1] [nM]	Emax [2] [%]	Compound	Fluorimetry % efficacy (RTG = 100%) (CHO-K1 cells expressing KCNQ2/3 channels, relative to retigabine (RTG) = 100%) [%]	Emax (CHO-K1, read-out: Fluorimetry % efficacy (RTG = 100%)) [%]
381	173	CCn1c(=O)c(C(=O)NCc2cccc(F)c2)c(C)c2ccc(C(F)(F)F)cc21 [Example 5, 1-ethyl-N-[(3-fluorophenyl)-methyl]-4-methyl-2-oxo-7-(trifluoromethyl)-1H-quinoline-3-carboxylic acid amide]		
401	175	CCn1c(=O)c(C(=O)NCc2ccc(F)cc2)c(C)c2ccc(C(F)(F)F)cc21 [Example 8, 1-ethyl-N-[(4-fluorophenyl)-methyl]-4-methyl-2-oxo-7-(trifluoromethyl)-1H-quinoline-3-carboxylic acid amide]		
5690	63	Cc1c(C(=O)NCc2cccc(F)c2)c(=O)n(C)c2ccccc12 [Example 9, N-[(3-fluorophenyl)-methyl]-1,4-dimethyl-2-oxo-1H-quinoline-3-carboxylic acid amide]		
	22	COCCn1c(=O)c(C(=O)NCc2cccc(F)c2)c(C)c2ccccc21 [Example 10, N-[(3-fluorophenyl)-methyl]-1-(2-methoxy-ethyl)-4-methyl-2-oxo-1H-quinoline-3-carboxylic acid amide]		
406	167	CCCn1c(=O)c(C(=O)NCc2cccc(F)c2)c(C)c2ccc(C(F)(F)F)cc21 [Example 11, N-[(3-fluorophenyl)-methyl]-4-methyl-2-oxo-1-propyl-7-(trifluoromethyl)-1H-quinoline-3-carboxylic acid amide]		
2020	78	COCCOCCn1c(=O)c(C(=O)NCc2cccc(F)c2)c(C)c2ccc(C(F)(F)F)cc21 [Example 15, N-[(3-fluorophenyl)-methyl]-1-[2-(2-methoxy-ethoxy)-ethyl]-4-methyl-2-oxo-7-(trifluoromethyl)-1H-quinoline-3-carboxylic acid amide]		
1270	143	Cc1c(C(=O)NCc2cccc(F)c2)c(=O)n(C)c2cc(C#N)ccc12 [Example 20, 7-cyano-N-[(3-fluorophenyl)-methyl]-1,4-dimethyl-2-oxo-1H-quinoline-3-carboxylic acid amide]		
3890	105	COCCn1c(=O)c(C(=O)NCc2ccc(F)cc2)c(C)c2ccc(C#N)cc21 [Example 23, 7-cyano-N-[(4-fluorophenyl)-methyl]-1-(2-methoxy-ethyl)-4-methyl-2-oxo-1H-quinoline-3-carboxylic acid amide]		
	16	Cc1c(C(=O)N(C)c2cccc(F)c2)c(=O)n(CC(=O)O)c2cc(C(F)(F)F)ccc12 [Example 28, 2-[3-[(3-fluorophenyl)-methyl-carbamoyl]-4-methyl-2-oxo-7-(trifluoromethyl)-1H-quinolin-1-yl]-acetic acid]		
	6	Cc1c(C(=O)N(C)c2cccc(F)c2)c(=O)n(CCC(=O)O)c2cc(C(F)(F)F)ccc12 [Example 29, 3-[3-[(3-fluorophenyl)-methyl-carbamoyl]-4-methyl-2-oxo-7-(trifluoromethyl)-1H-quinolin-1-yl]-propionic acid]		
193	133	CCC(COC)n1c(=O)c(C(=O)NCc2cccc(F)c2)c(C)c2ccc(C(F)(F)F)cc21 (centres unmarked) [Example 30, N-[(3-fluorophenyl)-methyl]-1-[1-(methoxymethyl)-propyl]-4-methyl-2-oxo-7-(trifluoromethyl)-1H-quinoline-3-carboxylic acid amide]		
	26	CCC(Cn1c(=O)c(C(=O)NCc2cccc(F)c2)c(C)c2ccc(C(F)(F)F)cc21)OC (centres unmarked) [Example 32, N-[(3-fluorophenyl)-methyl]-1-(2-methoxy-butyl)-4-methyl-2-oxo-7-(trifluoromethyl)-1H-quinoline-3-carboxylic acid amide]		
